Laboratory results published in US6541453B2, “Peptide derivatives” (Syngenta Limited, priority 1996, dated 2003).
Like-named read-outs stand apart in the source and are kept apart here.

Key:
[1] = Aqueous stability of peptide in McIlvaine's citric acid-phosphate buffer
Experimental: Approximately 20 ml of McIlvaine's citric acid-phosphate buffer solution at pH 3 or 7.6 containing 0.02% sodium azide is filtered into a 50 ml bottle using a sterile 0.22 μm filter unit and a 20 ml syringe. Approximately 1.2 mg of peptide is accurately weighed in a capped vial. […] The vial is capped and shaken to dissolve the peptide. Using a sterile pipette tip, aliquots of approximately 1 ml of the peptide solution are transferred to 10 HPLC vials, which are then capped. 5 vials are stored at −18 and 37° C. The area of the peptide peak for the solution is determined by HPLC using appropriate standards initially and after storage at −18 and 37° C. for 1, 2, 3 and 4 weeks, using a fresh vial at each time point with duplicate sample injections. The percentage of peptide remaining after storage at 37° C. at each time point is determined from the ratio of the area of the peptide peak at each time point to the initial area.

[2] = Peptide content of extruded polymer depot formulation (loss on extrusion); assay type: physicochemical
Experimental: About 20 mg of peptide is accurately weighed and sufficient polymer (50/50% molar poly(D,L-lactic acid/glycolic acid) copolymer of approximate weight average molecular weight 20 kD and approximate polydispersity of 1.7 as determined by size exclusion chromatography relative to polystyrene standards) added to produce an approximate 20% w/w mixture. This is dissolved in anhydride-free glacial acetic acid to produce an approximate 10% w/v solution. The solution is freeze dried and the resulting freeze dried product is stored under vacuum prior to use.
About 100 mg of freeze dried material is loaded into the barrel of a small laboratory extruder and the plunger pushed down to consolidate the sample. The extruder is heated to between 90 and 95 ° C. and held at this temperature for 10 minutes before the freeze dried material is extruded under pressure to give a cylindrical extrudate of approximately 1 mm in diameter. […]
Each standard is filtered through a 5 μm Millex PTFE filter and an aliquot of filtrate, together with aliquots of the solutions A, analysed by HPLC using duplicate sample injections. The peptide content of the extruded polymer depot formulation of peptide is calculated from the concentration of peptide in solutions A, which is determined by comparing the area of the peptide peak in solutions A with the area of the peptide peak from the standard solutions.

[3] = Degradation of peptide on in vitro release from an extruded polymer depot
HLA-DR1 = biological target: T1, HLA-DR1 (Homo sapiens, UniProt P01903+P01911, A100R/D57E/F55L/F60I/F76Y/I96L/L162R/M171V/P40L/Q125E/R42F/V115G/Y59C); experiment: Variant to Test A: peptide selectivity binding assay
T1 construct: endogenous in cells; host or cells: Hom 2 cell line
Experimental: The method used was a modification of that described by Gorga et al, 1987, J.Biol.Chem. 262, 16087-16094. Human HLA-DR antigens were purified from various cell lines by immunoaffinity chromatography. Briefly, 1×10^9-5×10^9 pelleted cells of the appropriate cell line selected from Hom 2 (source of DR1), BBF (source of DR2), AVL-B (source of DR3), JAH (source of DR4Dw4), JHAF (source of DR4Dw13) or PE117 (source of DR4Dwl4) were solubilised at approximately 4° C. in 50 ml of 5 mM EDTA (sodium salt), 50 mM Tris-HCL pH 7.4, 2% NP40, 150 mM NaCl, 1 mM iodoacetamide, 1 mM PMSF, by homogenisation with 10 strokes of a teflon glass homogeniser. […] Protein content was determined by a Biorad protein assay and purity by SDS-PAGE electrophoresis.
200 nM biotin-FHA307-320 in phosphate buffered saline (PBS) was incubated with either purified HLA-DR1, DR2, DR4Dw4, DR4Dw13 or DR4Dwl4 (2-20 μg/ml) in V-well microtitre plates (Nunc) with or without inhibitor peptides in assay buffer (PBS, 0.01% NP40 (Sigma.)) For DR3 inhibition, 400 nM Biotin-Ahx-(D)Ala-Ala-Ala-Cha-[…](D)Ala-OH [SEQ ID No. 14] was incubated with purified DR3 (20 μg/ml.), and incubated as above. After 48 hours, the incubates were treated, and absorbance readings taken as described in Test A. The inhibitory activity of peptides, expressed as IC50 values, was calculated using Microcal Origin software on a PC.

aqueous stability ([1]; pH3)	aqueous stability ([1]; pH7.6)	degradation on release from depot formulation [3]	IC50 (HLA-DR1) [µM]	aqueous stability (pH3)	aqueous stability (pH7.6)	SMILES	loss due to degradation on extrusion [2]
good aqueous stability	good aqueous stability	minimal degradation on release	> 100	–	–	COCCN(CCOC)C(=O)CN(CC(=O)N(CCOC)CCOC)C(=O)C[C@H](NC(=O)[C@H](C)NC(=O)[C@H](CCCNC(=N)N)NC(=O)[C@H](C)NC(=O)CCCCc1ccccc1)C(=O)N[C@H](C(=O)N[C@@H]1CCN([C@@H](C)C(=O)N[C@@H](C)C(=O)Nc2ccc(CC(N)=O)cc2)C1=O)[C@@H](C)O [Example 3, Phv-Ala-Arg-Ala-II-Thr-IIIa-Ala-Papa-NH2]	minimal loss due to degradation on extrusion
–	–	–	> 100	good aqueous stability	good aqueous stability	COCCOCCOCCN(CCOCCOCCOC)C(=O)CN(CC(=O)N(CCOCCOCCOC)CCOCCOCCOC)C(=O)C[C@H](NC(=O)[C@H](C)NC(=O)[C@H](C)NC(=O)[C@H](CCCNC(=N)N)NC(=O)CCCCc1ccccc1)C(=O)N[C@H](C(=O)N[C@@H]1CCN([C@@H](C)C(=O)N[C@@H](C)C(=O)Nc2ccc(CC(N)=O)cc2)C1=O)[C@@H](C)O [Example 6, Phv-Arg-Ala-Ala-II-Thr-IIIa-Ala-Papa-NH2]	minimal loss due to degradation on extrusion
